Measured values published in publication PMC9519552, “Activation of the human insulin receptor by non-insulin-related peptides” (Nature Communications, 2022).
Read-outs that look alike come from different tables or passages of the source. Positions of bridges follow the written chain, without caps; N, C: chain ends. Residues, ends and D or L forms follow the SMILES beside them.

How the values were obtained:
human IR-A (holoIR-A) = biological target: T1, human IR-A (holoIR-A) (Homo sapiens, UniProt P06213); experiment: holoIR-A competitive radioligand binding assay (scintillation proximity assay); conditions: for Ki: IM172N22(-) mutant peptide set; for reduction in ki for hIR-A on substitution: relative to control peptide IM172N22 devoid of N-terminal phenylacetylation
T1 construct: expressed in transfected cells; host or cells: HEK293 (ATCC #CRL-1573), stably transfected; membrane preparation
T1 sequence (P06213 28-1370 isoform P06213-2 limits assumed): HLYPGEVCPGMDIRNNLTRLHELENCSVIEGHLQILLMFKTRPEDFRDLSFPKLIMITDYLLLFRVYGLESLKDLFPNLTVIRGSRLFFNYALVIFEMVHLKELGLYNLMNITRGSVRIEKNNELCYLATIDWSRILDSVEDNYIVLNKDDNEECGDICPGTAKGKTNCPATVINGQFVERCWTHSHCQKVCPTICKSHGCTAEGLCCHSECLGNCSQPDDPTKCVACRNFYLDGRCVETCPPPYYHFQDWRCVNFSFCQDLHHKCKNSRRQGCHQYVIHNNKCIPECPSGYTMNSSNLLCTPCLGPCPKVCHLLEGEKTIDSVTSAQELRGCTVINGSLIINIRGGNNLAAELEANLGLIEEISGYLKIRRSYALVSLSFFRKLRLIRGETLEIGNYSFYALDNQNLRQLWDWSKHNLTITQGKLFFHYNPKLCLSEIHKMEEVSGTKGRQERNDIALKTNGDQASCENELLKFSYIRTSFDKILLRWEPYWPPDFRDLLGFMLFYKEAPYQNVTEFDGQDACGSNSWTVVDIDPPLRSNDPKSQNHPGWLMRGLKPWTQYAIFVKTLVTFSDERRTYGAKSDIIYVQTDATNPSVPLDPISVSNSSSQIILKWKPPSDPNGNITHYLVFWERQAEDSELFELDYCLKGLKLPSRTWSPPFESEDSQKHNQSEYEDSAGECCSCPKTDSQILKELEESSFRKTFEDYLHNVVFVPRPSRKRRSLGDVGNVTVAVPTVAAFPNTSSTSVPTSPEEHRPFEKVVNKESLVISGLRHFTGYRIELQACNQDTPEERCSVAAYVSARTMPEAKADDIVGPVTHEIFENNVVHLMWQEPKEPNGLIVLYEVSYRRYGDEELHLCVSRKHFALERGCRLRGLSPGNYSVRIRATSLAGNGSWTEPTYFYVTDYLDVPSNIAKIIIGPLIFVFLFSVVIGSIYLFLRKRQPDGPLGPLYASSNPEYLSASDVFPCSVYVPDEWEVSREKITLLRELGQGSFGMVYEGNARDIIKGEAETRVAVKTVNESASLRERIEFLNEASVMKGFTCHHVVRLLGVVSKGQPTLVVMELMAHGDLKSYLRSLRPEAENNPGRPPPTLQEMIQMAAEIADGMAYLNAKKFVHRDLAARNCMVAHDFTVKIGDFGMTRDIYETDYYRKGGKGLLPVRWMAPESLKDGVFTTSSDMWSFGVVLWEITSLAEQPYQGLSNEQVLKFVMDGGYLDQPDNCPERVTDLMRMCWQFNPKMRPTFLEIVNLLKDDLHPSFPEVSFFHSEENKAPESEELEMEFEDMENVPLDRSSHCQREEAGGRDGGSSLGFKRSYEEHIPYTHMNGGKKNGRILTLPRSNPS
T1 sequence (P06213 763-1382 partner limits assumed): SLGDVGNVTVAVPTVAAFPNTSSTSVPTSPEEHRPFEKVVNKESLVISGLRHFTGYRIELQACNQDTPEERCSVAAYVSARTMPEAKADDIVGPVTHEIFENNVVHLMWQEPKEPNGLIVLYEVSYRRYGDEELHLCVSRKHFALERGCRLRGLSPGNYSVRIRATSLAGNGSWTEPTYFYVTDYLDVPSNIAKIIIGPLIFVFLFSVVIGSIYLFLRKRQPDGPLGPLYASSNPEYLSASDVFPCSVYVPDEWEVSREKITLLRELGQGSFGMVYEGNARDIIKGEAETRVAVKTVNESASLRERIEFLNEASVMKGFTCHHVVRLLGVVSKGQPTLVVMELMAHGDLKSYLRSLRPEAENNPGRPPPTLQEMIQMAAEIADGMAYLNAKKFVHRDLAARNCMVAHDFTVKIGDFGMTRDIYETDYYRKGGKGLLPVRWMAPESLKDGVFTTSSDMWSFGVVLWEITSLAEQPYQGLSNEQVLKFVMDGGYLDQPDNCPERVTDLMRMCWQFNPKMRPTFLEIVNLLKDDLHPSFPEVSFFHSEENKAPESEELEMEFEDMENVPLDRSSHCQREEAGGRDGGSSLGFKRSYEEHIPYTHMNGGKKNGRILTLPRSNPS
Description: Cellular membranes were prepared from human embryonic kidney (HEK293; ATCC #CRL-1573) cells stably transfected with cDNA corresponding to human IR-A (holoIR-A) plus a C-terminal C9 tag ([…]) inserted within a pcDNA3.1 plasmid (Invitrogen), with positive clones selected with 800 μg mL^−1 neomycin and confirmed by Western Blot. Frozen cell pellets were thawed in ice-cold homogenization/resuspension buffer (50 mM Tris-HCl, pH 7.5) containing one cOmplete® protease inhibitor tablet with EDTA (Roche Diagnostics) per 50 mL buffer. Cells were homogenized with an overhead motor-driven Teflon-glass homogenizer using 15–20 strokes, followed by centrifugation at 1100 × g for 10 min at 4 °C. The supernatant was saved on ice, pellets were homogenized as before, and centrifuged at 1100 × g for 10 min at 4 °C. Both supernatants were combined and subsequently centrifuged at 35,000 × g for 60 min at 4 °C. The pellet was resuspended in buffer (4 to 5 mL g^−1 of starting cell paste) containing protease inhibitors and quick frozen in liquid nitrogen prior to storage at −80 °C. Protein concentration was determined using a BCA kit (Thermo Scientific) with bovine serum albumin (BSA) as standard.
The assays were performed with a scintillation proximity assay (SPA) method using polyvinyltoluene (PVT) wheat germ agglutinin-coupled SPA beads (Perkin Elmer). Assay buffer containing 50 mM Tris-HCl (pH 7.5), 150 mM NaCl, 0.1% w/v fatty-acid free BSA was used for all compound testing and reagent preparation. Ten-point concentration response curves with three-fold serial dilutions of test samples or controls were prepared in the assay buffer. […] Plates were sealed and shaken for 1 min on a plate shaker. Following a 10-h incubation and bead settling period at room temperature, radioactivity was determined using a MicroBeta Trilux scintillation counter (Perkin Elmer) and expressed as counts per minute (CPM). […] Samples were tested in three independent assay runs on three different days.
All test sample concentration responses were normalized to the control response and calculated as a percent of the maximal response after correcting for nonspecific binding as shown below: %Specific Inhibition=100%−[(CPM−MIN)/(MAX−MIN)×100%]
Percent specific binding (y-axis) was plotted vs log concentration of compound (x-axis) using Prism Version 9.3.1 (GraphPad Software). Individual measurements are provided as Source Data.

[1] = biological target: T2, human holoIR-A over-expressed in HEK293 cells (Homo sapiens, UniProt P06213); experiment: Inhibition of hIR phosphorylation by peptides, co-incubated with BHI at its EC50 (ELISA); type: cell-based; conditions: for hIRA Phosph IC50 Run 1 / hIRA Phosph IC50 Run 2 / hIRA Phosph IC50 Run 3: inhibition of insulin-stimulated phosphorylation; for hIRA Phosph IC50 Run 1: BHI at its EC50, run 1; for hIRA Phosph IC50 Run 2: BHI at its EC50, run 2; for hIRA Phosph IC50 Run 3: BHI at its EC50, run 3; for IC50: read-out: hIRA Phosph IC50 Mean
T2 construct: expressed in transfected cells; host or cells: HEK293, stably transfected
T2 sequence (P06213 28-1370 isoform P06213-2 limits assumed): as the sequence (P06213 28-1370 isoform P06213-2 limits assumed) above
T2 sequence (P06213 763-1382 partner limits assumed): as the sequence (P06213 763-1382 partner limits assumed) above
Description: Phosphorylation was quantified using an ELISA technique. Ninety-six well, flat-bottom microplates (Greiner Bio-One) were pre-coated with 2 µg mL^−1 anti-C9 monoclonal antibody (Rho 1D4; University of British Columbia)[27] in 20 mM sodium carbonate, pH 9.6, at 4 °C for overnight prior to the assay. On the assay day, plates were washed 3× with 0.1% Tween in 50 mM Tris Buffer Saline, pH 7.5 (TBST), and then blocked for greater than 1 h at room temperature (RT) with 1% BSA (Sigma) in TBST.
Stably transfected HEK293 cells over-expressing human holoIR-A containing a C-terminal C9 epitope tag ([…]), were plated at 6 × 10^4 cells per well serum-starved using 0.1% BSA in DMEM (Gibco) for overnight at standard tissue culture condition. […] After a 15-min incubation in lysis buffer at 4 °C, the lysate was transferred to anti-C9 antibody coated capture plate (Rho 1D4; University of British Columbia)[27]. […] After a 1 h incubation at room temperature, the secondary antibody was removed by washing 3× with TBST. Signal detection occurred with the addition of TMB, an HRP substrate (Pierce). After 5–10 min, the reaction was stopped by adding an equal volume of 2 M H2SO4, and the absorbance readings at 450 nm (A450) were recorded using a Envision plate reader (PerkinElmer). Samples were tested in three independent assay runs on three different days.
Percent specific response (y-axis) was plotted versus the log concentration of compound (x-axis) using Prism Version 9.3.1 (GraphPad Software). Individual measurements are provided as Source Data.

[2] = mean of 3 runs, read-out: hIRA Binding Ki Mean
[3] = run 1, read-out: hIRA Binding Ki Run 1
[4] = run 2, read-out: hIRA Binding Ki Run 2
[5] = run 3, read-out: hIRA Binding Ki Run 3

Row | Ki (human IR-A (holoIR-A); [2]) | Ki (human IR-A (holoIR-A); [3]) | Ki (human IR-A (holoIR-A); [4]) | Ki (human IR-A (holoIR-A); [5]) | reduction in ki for hIR-A on substitution (human IR-A (holoIR-A)) | hIRA Phosph IC50 Run 1 [1] | hIRA Phosph IC50 Run 2 [1] | hIRA Phosph IC50 Run 3 [1] | IC50 [1] | Structure (SMILES)
1 | 19 nM | 19.4 nM | 16.4 nM | 21.2 nM | lower than 5 fold | 272 nM | 217 nM | 236 nM | 242 nM | CC[C@H](C)[C@H](NC(=O)[C@H](CCC(N)=O)NC(=O)[C@H](C)NC(=O)[C@H](Cc1c[nH]c2ccccc12)NC(=O)[C@H](CCC(=O)O)NC(=O)[C@H](CCC(=O)O)NC(=O)[C@H](CCC(=O)O)NC(=O)[C@H](CC(C)C)NC(=O)[C@H](CO)NC(C)=O)C(=O)N[C@@H](C)C(=O)N[C@H]1CSSC[C@@H](C(=O)N2CCC[C@H]2C(=O)N2CCC[C@H]2C(=O)N[C@@H](CO)C(=O)N[C@@H](CCC(=O)O)C(=O)N[C@@H](CO)C(N)=O)NC(=O)[C@H](CCCNC(=N)N)NC(=O)CNC(=O)[C@H](Cc2ccc(O)cc2)NC(=O)[C@H](C(C)C)NC(=O)[C@H](CCC(=O)O)NC1=O [Peptide E10A] (Ac-SLEEEWAQIACEVYGRCPPSES-NH2; disulfide 11-17)
2 | 3.7 nM | 3.77 nM | 3.11 nM | 4.23 nM |  | 27 nM | 27 nM | 24 nM | 26.2 nM | CC[C@H](C)[C@H](NC(=O)[C@H](CCC(N)=O)NC(=O)[C@H](C)NC(=O)[C@H](Cc1c[nH]c2ccccc12)NC(=O)[C@H](CCC(=O)O)NC(=O)[C@H](CCC(=O)O)NC(=O)[C@H](CCC(=O)O)NC(=O)[C@H](CC(C)C)NC(=O)[C@H](CO)NC(C)=O)C(=O)N[C@@H](CCCNC(=N)N)C(=O)N[C@H]1CSSC[C@@H](C(=O)N2CCC[C@H]2C(=O)N2CCC[C@H]2C(=O)N[C@@H](CO)C(=O)N[C@@H](CCC(=O)O)C(=O)N[C@@H](CO)C(N)=O)NC(=O)[C@H](CCCNC(=N)N)NC(=O)CNC(=O)[C@H](Cc2ccc(O)cc2)NC(=O)[C@H](C(C)C)NC(=O)[C@H](CCC(=O)O)NC1=O [Peptide E10R] (Ac-SLEEEWAQIRCEVYGRCPPSES-NH2; disulfide 11-17)
3 | 50.3 nM | 44.9 nM | 52.2 nM | 53.9 nM |  | 343 nM | 247 nM | 295 nM | 295 nM | CC[C@H](C)[C@H](NC(=O)[C@H](CCC(N)=O)NC(=O)[C@H](C)NC(=O)[C@H](Cc1c[nH]c2ccccc12)NC(=O)[C@H](CCC(=O)O)NC(=O)[C@H](CCC(=O)O)NC(=O)[C@H](CCC(=O)O)NC(=O)[C@H](CC(C)C)NC(=O)[C@H](CO)NC(C)=O)C(=O)N[C@@H](CCC(=O)O)C(=O)N[C@H]1CSSC[C@@H](C(=O)N2CCC[C@H]2C(=O)N2CCC[C@H]2C(=O)N[C@@H](CO)C(=O)N[C@@H](CCC(=O)O)C(=O)N[C@@H](CO)C(N)=O)NC(=O)[C@H](CCCNC(=N)N)NC(=O)CNC(=O)[C@H](Cc2ccc(O)cc2)NC(=O)[C@H](C(C)C)NC(=O)[C@H](C)NC1=O [Peptide E12A] (Ac-SLEEEWAQIECAVYGRCPPSES-NH2; disulfide 11-17)
4 | 132 nM | 117 nM | 126 nM | 152 nM |  | 2869 nM | 2922 nM | 2670 nM | 2820 nM | CC[C@H](C)[C@H](NC(=O)[C@H](CCC(N)=O)NC(=O)[C@H](C)NC(=O)[C@H](Cc1c[nH]c2ccccc12)NC(=O)[C@H](CCC(=O)O)NC(=O)[C@H](CCC(=O)O)NC(=O)[C@H](CCC(=O)O)NC(=O)[C@H](CC(C)C)NC(=O)[C@H](CO)NC(C)=O)C(=O)N[C@@H](CCC(=O)O)C(=O)N[C@H]1CSSC[C@@H](C(=O)N2CCC[C@H]2C(=O)N2CCC[C@H]2C(=O)N[C@@H](CO)C(=O)N[C@@H](CCC(=O)O)C(=O)N[C@@H](CO)C(N)=O)NC(=O)[C@H](CCCNC(=N)N)NC(=O)CNC(=O)[C@H](Cc2ccc(O)cc2)NC(=O)[C@H](C(C)C)NC(=O)[C@H](CCCNC(=N)N)NC1=O [Peptide E12R] (Ac-SLEEEWAQIECRVYGRCPPSES-NH2; disulfide 11-17)
5 | 17.5 nM | 19.79 nM | 18.2 nM | 14.7 nM | lower than 5 fold | 147 nM | 122 nM | 132 nM | 134 nM | CC[C@H](C)[C@H](NC(=O)[C@H](CCC(N)=O)NC(=O)[C@H](C)NC(=O)[C@H](Cc1c[nH]c2ccccc12)NC(=O)[C@H](CCC(=O)O)NC(=O)[C@H](CCC(=O)O)NC(=O)[C@H](CCC(=O)O)NC(=O)[C@H](CC(C)C)NC(=O)[C@H](CO)NC(C)=O)C(=O)N[C@@H](CCC(=O)O)C(=O)N[C@H]1CSSC[C@@H](C(=O)N2CCC[C@H]2C(=O)N2CCC[C@H]2C(=O)N[C@@H](CO)C(=O)N[C@@H](C)C(=O)N[C@@H](CO)C(N)=O)NC(=O)[C@H](CCCNC(=N)N)NC(=O)CNC(=O)[C@H](Cc2ccc(O)cc2)NC(=O)[C@H](C(C)C)NC(=O)[C@H](CCC(=O)O)NC1=O [Peptide E21A] (Ac-SLEEEWAQIECEVYGRCPPSAS-NH2; disulfide 11-17)
6 | 8.9 nM | 8.75 nM | 8.05 nM | 9.91 nM |  | 28 nM | 27 nM | 29 nM | 28.1 nM | CC[C@H](C)[C@H](NC(=O)[C@H](CCC(N)=O)NC(=O)[C@H](C)NC(=O)[C@H](Cc1c[nH]c2ccccc12)NC(=O)[C@H](CCC(=O)O)NC(=O)[C@H](CCC(=O)O)NC(=O)[C@H](CCC(=O)O)NC(=O)[C@H](CC(C)C)NC(=O)[C@H](CO)NC(C)=O)C(=O)N[C@@H](CCC(=O)O)C(=O)N[C@H]1CSSC[C@@H](C(=O)N2CCC[C@H]2C(=O)N2CCC[C@H]2C(=O)N[C@@H](CO)C(=O)N[C@@H](CCCNC(=N)N)C(=O)N[C@@H](CO)C(N)=O)NC(=O)[C@H](CCCNC(=N)N)NC(=O)CNC(=O)[C@H](Cc2ccc(O)cc2)NC(=O)[C@H](C(C)C)NC(=O)[C@H](CCC(=O)O)NC1=O [Peptide E21R] (Ac-SLEEEWAQIECEVYGRCPPSRS-NH2; disulfide 11-17)
7 | 99.3 nM | 97.0 nM | 117 nM | 83.7 nM | 10 fold | 601 nM | 587 nM | 624 nM | 604 nM | CC[C@H](C)[C@H](NC(=O)[C@H](CCC(N)=O)NC(=O)[C@H](C)NC(=O)[C@H](Cc1c[nH]c2ccccc12)NC(=O)[C@H](CCC(=O)O)NC(=O)[C@H](CCC(=O)O)NC(=O)[C@H](CCC(=O)O)NC(=O)[C@H](CC(C)C)NC(=O)[C@H](CO)NC(C)=O)C(=O)N[C@@H](CCC(=O)O)C(=O)N[C@H]1CSSC[C@@H](C(=O)N2CCC[C@H]2C(=O)N2CCC[C@H]2C(=O)N[C@@H](CO)C(=O)N[C@@H](CCC(=O)O)C(=O)N[C@@H](CO)C(N)=O)NC(=O)[C@H](CCCNC(=N)N)NC(=O)[C@H](C)NC(=O)[C@H](Cc2ccc(O)cc2)NC(=O)[C@H](C(C)C)NC(=O)[C@H](CCC(=O)O)NC1=O [Peptide G15A] (Ac-SLEEEWAQIECEVYARCPPSES-NH2; disulfide 11-17)
